In patent publication US9670210B2, “Cyclopropylamines as LSD1 inhibitors” (Incyte Corporation, priority 2014, dated 2017):
pIC50: −log10 of the molar value. Read-outs that look alike come from different tables or passages of the source.

Columns and labels:
LSD-1 enzyme [1] = biological target: T1, LSD-1 enzyme (Homo sapiens (Human), UniProt O60341)
Protocol: (§1) LSD1 Histone Demethylase Biochemical Assay
(§2) LANCE LSD1/KDM1A demethylase assay-10 μL of 1 nM LSD-1 enzyme (ENZO BML-SE544-0050) in the assay buffer (50 mM Tris, pH 7.5, 0.01% Tween-20, 25 mM NaCl, 5 mM DTT) were preincubated for 1 hour at 25° C. with 0.8 μL compound/DMSO dotted in black 384 well polystyrene plates. […] After stopping the reactions plates were incubated for 30 minutes and read on a PHERAstar FS plate reader (BMG Labtech).

LSD-1 enzyme [2] = biological target: T1, LSD-1 enzyme; test: biochemical
Protocol: as §1, §2

SMILES	pIC50 (LSD-1 enzyme [1])	pIC50 (LSD-1 enzyme [2])
O=C(O)C1(CN2CCC(CN[C@@H]3C[C@H]3c3ccccc3)(Cc3ccc(F)cn3)CC2)CCC1 [Example 97, 1-{[4-[(5-fluoropyridin-2-yl)methyl]-4-({[(1R,2S)-2-phenylcyclopropyl]amino}methyl)piperidin-1-yl]methyl}cyclobutanecarboxylic acid]	> 7.00	–
COc1ccc(CC2(CN[C@@H]3C[C@H]3c3ccccc3)CCN(CC3(C(=O)O)CC3)CC2)cc1 [Example 98, 1-{[4-(4-methoxybenzyl)-4-({[(1R,2S)-2-phenylcyclopropyl]amino}methyl)piperidin-1-yl]methyl}cyclopropanecarboxylic acid]	> 7.00	–
COc1ccc(CC2(CN[C@@H]3C[C@H]3c3ccccc3)CCN(CC3(C(=O)O)CCC3)CC2)cc1 [Example 99, 1-{[4-(4-methoxybenzyl)-4-({[(1R,2S)-2-phenylcyclopropyl]amino}methyl)piperidin-1-yl]methyl}cyclobutanecarboxylic acid]	> 7.00	–
COCC1(CN[C@@H]2C[C@H]2c2ccccc2)CCN(C(=O)[C@H]2CC[C@H](CO)CC2)CC1 [Example 100, (trans-4-{[4-(methoxymethyl)-4-({[(1R,2S)-2-phenylcyclopropyl]amino}methyl)piperidin-1-yl]carbonyl}cyclohexyl)methanol]	> 7.00	–
COCC1(CN[C@@H]2C[C@H]2c2ccccc2)CCN(C(=O)[C@H]2CC[C@@H](CO)CC2)CC1 [Example 101, (cis-4-{[4-(methoxymethyl)-4-({[(1R,2S)-2-phenylcyclopropyl]amino}methyl)piperidin-1-yl]carbonyl}cyclohexyl)methanol]	> 7.00	–
COCC1(CN[C@@H]2C[C@H]2c2ccccc2)CCN(C(=O)C2(C#N)CC2)CC1 [Example 102, 1-{[4-(methoxymethyl)-4-({[(1R,2S)-2-phenylcyclopropyl]amino}methyl)piperidin-1-yl]carbonyl}cyclopropanecarbonitrile]	> 7.00	–
COCC1(CN[C@@H]2C[C@H]2c2ccccc2)CCN(C(=O)c2cnn(CCO)c2)CC1 [Example 103, 2-(4-{[4-(methoxymethyl)-4-({[(1R,2S)-2-phenylcyclopropyl]amino}methyl)piperidin-1-yl]carbonyl}-1H-pyrazol-1-yl)ethanol]	> 7.00	–
COCCn1cc(C(=O)N2CCC(CN[C@@H]3C[C@H]3c3ccccc3)(COC)CC2)cn1 [Example 104, (1R,2S)—N-{[1-{[1-(2-methoxyethyl)-1H-pyrazol-4-yl]carbonyl}-4-(methoxymethyl)piperidin-4-yl]methyl}-2-phenylcyclopropanamine]	> 7.00	–
COCC1(CN[C@@H]2C[C@H]2c2ccccc2)CCN(C(=O)c2cnn(C)c2)CC1 [Example 105, (1R,2S)—N-({4-(methoxymethyl)-1-[(1-methyl-1H-pyrazol-4-yl)carbonyl]piperidin-4-yl}methyl)-2-phenylcyclopropanamine]	> 7.00	–
COCC1(CN[C@@H]2C[C@H]2c2ccccc2)CCN(C(=O)c2cnn(CCC#N)c2)CC1 [Example 106, 3-(4-{[4-(methoxymethyl)-4-({[(1R,2S)-2-phenylcyclopropyl]amino}methyl)piperidin-1-yl]carbonyl}-1H-pyrazol-1-yl)propanenitrile]	> 7.00	–
COCC1(CN[C@@H]2C[C@H]2c2ccccc2)CCN(C(=O)c2ccn(CCC#N)n2)CC1 [Example 107, 3-(3-{[4-(methoxymethyl)-4-({[(1R,2S)-2-phenylcyclopropyl]amino}methyl)piperidin-1-yl]carbonyl}-1H-pyrazol-1-yl)propanenitrile]	> 7.00	–
COCC1(CN[C@@H]2C[C@H]2c2ccccc2)CCN(C(=O)c2ccn(CCO)n2)CC1 [Example 108, 2-(3-{[4-(methoxymethyl)-4-({[(1R,2S)-2-phenylcyclopropyl]amino}methyl)piperidin-1-yl]carbonyl}-1H-pyrazol-1-yl)ethanol]	> 7.00	–
COCC1(CN[C@@H]2C[C@H]2c2ccccc2)CCN(C(=O)N2CCC[C@@H](O)C2)CC1 [Example 109, (3R)-1-{[4-(methoxymethyl)-4-({[(1R,2S)-2-phenylcyclopropyl]amino}methyl)piperidin-1-yl]carbonyl}piperidin-3-ol]	> 7.00	–
COCC1(CN[C@@H]2C[C@H]2c2ccccc2)CCN(C(=O)N2CCC[C@H](O)C2)CC1 [Example 110, (3S)-1-{[4-(methoxymethyl)-4-({[(1R,2S)-2-phenylcyclopropyl]amino}methyl)piperidin-1-yl]carbonyl}piperidin-3-ol]	> 7.00	–
COCC1(CN[C@@H]2C[C@H]2c2ccccc2)CCN(C(=O)N2CC(O)C2)CC1 [Example 111, 1-{[4-(methoxymethyl)-4-({[(1R,2S)-2-phenylcyclopropyl]amino}methyl)piperidin-1-yl]carbonyl}azetidin-3-ol]	–	> 7.00
COCC1(CN[C@@H]2C[C@H]2c2ccccc2)CCN(C(=O)N2CCC(O)CC2)CC1 [Example 112, 1-{[4-(methoxymethyl)-4-({[(1R,2S)-2-phenylcyclopropyl]amino}methyl)piperidin-1-yl]carbonyl}piperidin-4-ol]	> 7.00	–
COCC1(CN[C@@H]2C[C@H]2c2ccccc2)CCN(C(=O)N2CCC(OC)CC2)CC1 [Example 113, (1R,2S)—N-({4-(methoxymethyl)-1-[(4-methoxypiperidin-1-yl)carbonyl]piperidin-4-yl}methyl)-2-phenylcyclopropanamine]	> 7.00	–
COCC1(CN[C@@H]2C[C@H]2c2ccccc2)CCN(S(=O)(=O)c2cnn(C)c2)CC1 [Example 114, (1R,2S)—N-({4-(methoxymethyl)-1-[(1-methyl-1H-pyrazol-4-yl)sulfonyl]piperidin-4-yl}methyl)-2-phenylcyclopropanamine]	> 7.00	–
COCC1(CN[C@@H]2C[C@H]2c2ccccc2)CCN(S(=O)(=O)c2ccnn2C)CC1 [Example 115, (1R,2S)—N-({4-(methoxymethyl)-1-[(1-methyl-1H-pyrazol-5-yl)sulfonyl]piperidin-4-yl}methyl)-2-phenylcyclopropanamine]	> 7.00	–
COCC1(CN[C@@H]2C[C@H]2c2ccccc2)CCN(S(=O)(=O)c2ccn(C)n2)CC1 [Example 116, (1R,2S)—N-({4-(methoxymethyl)-1-[(1-methyl-1H-pyrazol-3-yl)sulfonyl]piperidin-4-yl}methyl)-2-phenylcyclopropanamine]	> 7.00	–
